Test results from publication PMC9863004, “Development of [^124/125I]IAZA as a New Proteinopathy Imaging Agent for Alzheimer’s Disease” (Molecules, 2023).

Columns and labels:
[1] = target: T1, Aβ amyloid plaques (amyloid β) (Homo sapiens, UniProt P05067); test: displacement of […]IAZA at […], autoradiography in human AD brain slices
T1 construct: gene APP; aggregated Aβ plaques in postmortem human AD brain slices

[2] = target: T1, Aβ amyloid plaques (amyloid β); test: autoradiographic radioligand competition with […]IBETA in human AD brain slices; direct [[…]I]IAZA binding

T1 sequence (P05067 18-770): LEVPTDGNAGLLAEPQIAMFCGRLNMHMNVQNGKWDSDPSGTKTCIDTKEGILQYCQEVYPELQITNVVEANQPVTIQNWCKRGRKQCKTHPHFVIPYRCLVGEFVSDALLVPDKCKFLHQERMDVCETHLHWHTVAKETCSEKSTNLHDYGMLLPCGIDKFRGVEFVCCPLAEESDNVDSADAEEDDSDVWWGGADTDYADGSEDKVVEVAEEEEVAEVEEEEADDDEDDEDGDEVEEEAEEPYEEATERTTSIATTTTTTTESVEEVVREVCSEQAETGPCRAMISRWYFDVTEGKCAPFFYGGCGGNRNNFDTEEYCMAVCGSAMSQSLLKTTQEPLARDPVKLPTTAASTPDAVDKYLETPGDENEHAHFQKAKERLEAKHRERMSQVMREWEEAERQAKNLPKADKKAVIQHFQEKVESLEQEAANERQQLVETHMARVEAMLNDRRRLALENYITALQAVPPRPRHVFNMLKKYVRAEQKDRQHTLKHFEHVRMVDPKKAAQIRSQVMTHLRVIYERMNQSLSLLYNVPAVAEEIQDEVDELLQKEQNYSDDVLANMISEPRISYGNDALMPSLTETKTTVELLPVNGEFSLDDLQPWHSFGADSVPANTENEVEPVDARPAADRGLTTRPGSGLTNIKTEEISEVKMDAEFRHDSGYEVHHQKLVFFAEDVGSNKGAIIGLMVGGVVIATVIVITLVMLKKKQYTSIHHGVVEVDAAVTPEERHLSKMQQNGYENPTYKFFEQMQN

Row | SMILES | inhibition at 10 µM [1] | Ki [2]
1 | CN(C)c1ccc(-c2cc3cc(Br)ccc3o2)cn1 [BrBETA] | > 95% | 
2 | CN(C)c1ccc(N=Nc2ccc(I)cc2)cc1 [compound 5, 4′-iodo-4-dimethylaminoazobenzene] |  | 10.9 nM
